System: nude rat skin
Experiment: transdermic passage of pentasaccharide sodium salt by iontophoresis at set intensity through nude rat skin
Format: in vitro ADME
Conditions: for Utilization factor of the active principle: quantity at 22 hours/initial quantity
Protocol: The procedure was carried out in iontophoresis cells with identical structure. Each iontophoresis cell consisted of three coaxial, adjacent cylindrical compartments of 2 cm^2 cross section, namely, in this order, a donor compartment, a receiver compartment and a back electrode compartment, these three compartments each being separated from the next in leaktight fashion by a piece of nude rat skin from the same batch, serving as a skin sample for studying the transdermic diffusion. […] The receiver compartment, with a volume of 10 ml, contained a 9 g/liter solution of NaCl and was agitated using a magnetic bar. The back electrode compartment, with a volume of 0.5 ml, contained a 2% by weight aqueous solution of NaCl. At its end opposite the receiver compartment, the donor compartment was fitted with a negative electrode or cathode consisting of a 15 μm thick film of silver chloridized on one face to contain an AgCl layer corresponding to 2 mAh/cm^2. In the same way as the donor compartment, the back electrode compartment was equipped with a positive electrode or anode (back electrode) consisting of a 15 μm silver film weakly chloridized on the surface (a quantity of AgCl corresponding to 0.1 mAh/cm^2). The chloridized face of each electrode was turned towards the rat skin sample.
The rat skin samples had had the subcutaneous tissues removed and were preserved by freezing at -40° C. until they were fitted in the iontophoresis cell, with the dermal faces turned towards the receiver compartment, after having spent 15 minutes in physiological salt solution.
For each of the tests which were carried out, six identical iontophoresis cells were started up simultaneously. The active exchange surface was 2 cm^2 for each skin sample. […]
At the end of the said period, an aliquot of the medium contained in the receiver compartment was taken, and the quantity of pentasaccharide which had passed through the skin separating the donor and receiver compartments of each cell was determined by assaying. A second sample was taken 22 hours after the start of each experiment, i.e. 17 hours after the end of the electric signal, in order to allow a significant proportion of the quantities of pentasaccharide active principle held in the skin sample to diffuse in the absence of subcutaneous blood circulation.
Five tests 1a to 1e were carried out as follows:
For each of the tests, the average antifactor Xa activity per ml of medium was determined on aliquots taken from the receiver compartments of the six cells, this representing the quantity of pentasaccharide which had diffused into these compartments after the 5 hours of applying the current and 22 hours after the start of each experiment, i.e. 17 hours after the end of the said current.
The assay of the pentasaccharide in the receiver compartment was based on investigating its antifactor Xa activity. […] The calibration curve was established using a "Golden Standard" pentasaccharide solution to which an antifactor Xa activity equal to 13 units per ml was assigned.
The data presented in this table are average results calculated over a series of six identical cells receiving the same quantities of electricity.

[1] = Test 1a: no membrane, 5 mg/cm^2, 1 mAh/cm^2
[2] = Test 1b: no membrane, 1 mg/cm^2, 1 mAh/cm^2
[3] = Test 1c: cellulose acetate/POEG membrane 75 μm, 1 mg/cm^2, 0.9 mAh/cm^2
[4] = Test 1e: PEBAX MV 1074 membrane 50 μm, hydrogel, 0.5 mg/cm^2, 1 mAh/cm^2
[5] = Test 1d (PEBAX MV 1041 membrane) vs Test 1b (no membrane)
[6] = Test 1d: PEBAX MV 1041 membrane 50 μm, 1 mg/cm^2, 1 mAh/cm^2

Quantity of active principle at 5 hours (Passive, no current, 5 mg/cm^2): 1 μg/cm^2 | Quantity of active principle at 22 hours (Passive, no current, 5 mg/cm^2): 1.5 μg/cm^2 | Quantity of active principle per mAh (Passive, no current, 5 mg/cm^2): 1.5 μg/cm^2 | aXa activity/ml at 5 hours (Passive, no current, 5 mg/cm^2): 0.2 mL⁻¹ | aXa activity/ml at 22 hours (Passive, no current, 5 mg/cm^2): 0.3 mL⁻¹ | Utilization factor of the active principle (Passive, no current, 5 mg/cm^2): 0.03% | Quantity of active principle at 5 hours [1]: 115 μg/cm^2 | Quantity of active principle at 22 hours [1]: 150 μg/cm^2 | Quantity of active principle per mAh [1]: 150 μg/cm^2 | aXa activity/ml at 5 hours [1]: 23 mL⁻¹ | aXa activity/ml at 22 hours [1]: 30 mL⁻¹ | Utilization factor of the active principle [1]: 3% | Quantity of active principle at 5 hours [2]: 110 μg/cm^2 | Quantity of active principle at 22 hours [2]: 140 μg/cm^2 | Quantity of active principle per mAh [2]: 140 μg/cm^2 | aXa activity/ml at 5 hours [2]: 22 mL⁻¹ | aXa activity/ml at 22 hours [2]: 28 mL⁻¹ | Utilization factor of the active principle [2]: 14% | Quantity of active principle at 5 hours [3]: 75 μg/cm^2 | Quantity of active principle at 22 hours [3]: 110 μg/cm^2 | Quantity of active principle per mAh [3]: 125 μg/cm^2 | aXa activity/ml at 5 hours [3]: 15 mL⁻¹ | aXa activity/ml at 22 hours [3]: 20 mL⁻¹ | Utilization factor of the active principle [3]: 11% | Quantity of active principle at 5 hours [4]: 245 μg/cm^2 | Quantity of active principle at 22 hours [4]: 310 μg/cm^2 | Quantity of active principle per mAh [4]: 310 μg/cm^2 | aXa activity/ml at 5 hours [4]: 49 mL⁻¹ | aXa activity/ml at 22 hours [4]: 62 mL⁻¹ | Utilization factor of the active principle [4]: 62% | active principle depletion factor of the donor electrode assembly (in words) [5]: increased very substantially | quantity of active principle administered per unit quantity of electricity (in words) [5]: increased very substantially | Quantity of active principle at 5 hours [6]: 295 μg/cm^2 | Quantity of active principle at 22 hours [6]: 390 μg/cm^2 | Quantity of active principle per mAh [6]: 390 μg/cm^2 | aXa activity/ml at 5 hours [6]: 59 mL⁻¹ | aXa activity/ml at 22 hours [6]: 70 mL⁻¹ | Utilization factor of the active principle [6]: 39% | passive transport of the pentasaccharide (in words) (no current): very low
SMILES: O=C(O)C1OC(OC2C(COS(=O)(=O)O)OC(OC3C(C(=O)O)OC(OC4C(COS(=O)(=O)O)OC(O)C(NS(=O)(=O)O)C4O)C(OS(=O)(=O)O)C3O)C(NS(=O)(=O)O)C2OS(=O)(=O)O)C(O)C(O)C1OC1OC(COS(=O)(=O)O)C(O)C(O)C1NS(=O)(=O)O (stereo not drawn) [pentasaccharide]

Reference: patent US6064908A, “Device for ionophoresis comprising at least a membrane electrode assembly, for the transcutaneous administration of active principles to a subject” (Elf Aquitaine, priority 1996, dated 2000)
